Where “and” joins values, the source holds several entries; their conditions need not be identical. Equal entries are not always repeated.
Legend:
JAK2 [1] = molecular target: T1, JAK2 (Homo sapiens, UniProt O60674); assay: JAK2 Ulight-JAK1 peptide assay; type: biochemical
T1 construct: Recombinant human JAK2 catalytic domain (amino acids 808-1132; catalog number PV4210) was purchased from Invitrogen; purchased Invitrogen PV4210
Protocol: Recombinant human JAK2 (catalytic domain, amino acids […]; catalog number PV4210) was purchased from Invitrogen. 0.0125 mU of JAK2 was incubated with 25 nM Ulight-JAK1(tyr1023) peptide (Perkin Elmer catalog number TRF0121) in kinase reaction buffer (25 mM HEPES pH7.0, 0.01% Triton X-100, 7.5 mM MgCl2, 2 mM DTT, 7.5 μM ATP) with or without 4 μL containing test compound or vehicle (DMSO, 1% final concentration), in a total volume of 20 μL, in a white 384 Opti plate (Perkin Elmer, catalog number 6007290). After 60 min at rt, reactions were stopped by adding 20 μL/well of detection mixture (1× detection buffer (Perkin Elmer, catalog number CR97-100C), 0.5 nM Europium-anti-phosphotyrosine (PT66) (Perkin Elmer, catalog number AD0068), 10 mM EDTA). Readout is performed using the Envision with excitation at 320 nm and measuring emission at 615 nm (Perkin Elmer). Kinase activity was calculated by subtracting relative fluorescence units (RFU) obtained in the presence of a positive control inhibitor (10 μM staurosporine) from RFU obtained in the presence of vehicle. The ability of a test compound to inhibit this activity was determined as:
Percentage inhibition=((RFU determined for sample with test compound present−RFU determined for sample with positive control inhibitor) divided by (RFU determined in the presence of vehicle−RFU determined for sample with positive control inhibitor))*100. […]

JAK2 [2] = molecular target: T1, JAK2; assay: JAK2 Ki determination assay (kinase tracer binding); conditions: kinase tracer 236 binding; read-out: Ki against JAK2
Protocol: (§1) JAK2 (Invitrogen, PV4210) was used at a final concentration of 5 nM. The binding experiment was performed in 50 mM Hepes pH 7.5, 0.01% Brij-35, 10 mM MgCl2, 1 mM EGTA using 25 nM kinase tracer 236 (Invitrogen, PV5592) and 2 nM Eu-anti-GST (Invitrogen, PV5594) with varying compound concentrations. Detection of tracer was performed according to the manufacturer's procedure.

[3] = molecular target: T2, Recombinant human JAK3 catalytic domain (Homo sapiens, UniProt P52333); assay: JAK3 inhibition assay (polyGT substrate); type: biochemical
T2 construct: Recombinant human JAK3 catalytic domain (amino acids 781-1124; catalog number PV3855) was purchased from Invitrogen; purchased Invitrogen PV3855
Protocol: Recombinant human JAK3 catalytic domain (amino acids 781-1124; catalog number PV3855) was purchased from Invitrogen. 0.5 ng JAK3 protein was incubated with 2.5 μg polyGT substrate (Sigma catalog number P0275) in kinase reaction buffer (25 mM Tris pH 7.5, 0.5 mM EGTA, 10 mM MgCl2, 2.5 mM DTT, 0.5 mM Na3VO4, 5 mM b-glycerolphosphate, 0.01% Triton X-100, 1 μM non-radioactive ATP, 0.25 μCi ^33P-gamma-ATP (GE Healthcare, catalog number AH9968) final concentrations) with or without 5 μL containing test compound or vehicle (DMSO, 1% final concentration), in a total volume of 25 μL, in a polypropylene 96-well plate (Greiner, V-bottom). After 45 min at 30° C., reactions were stopped by adding 25 μL/well of 150 mM phosphoric acid. […] 40 μL/well of Microscint-20 was added, the top of the plates was sealed and readout was performed using the Topcount (Perkin Elmer). Kinase activity was calculated by subtracting counts per min (cpm) obtained in the presence of a positive control inhibitor (10 μM staurosporine) from cpm obtained in the presence of vehicle. The ability of a test compound to inhibit this activity was determined as:
Percentage inhibition=((cpm determined for sample with test compound present−cpm determined for sample with positive control inhibitor) divided by (cpm determined in the presence of vehicle−cpm determined for sample with positive control inhibitor))*100. […]

TYK2 = molecular target: T3, TYK2 (Homo sapiens, UniProt P29597); assay: TYK2 Ki determination assay (kinase tracer binding); conditions: kinase tracer 236 binding; read-out: Ki against TYK2
T3 construct: purchased Carna Biosciences 09CBS-0983D
Protocol: as §1, with “TYK2 (Carna Biosciences, 09CBS-0983D)” for “JAK2 (Invitrogen, PV4210)”, “50” for “25”, “manufacturers'” for “manufacturer's”

CTLL2 cells = assay: CTLL2 viability assay (IL2-dependent); type: cell-based; conditions: ATP content
Protocol: The protocol describes the methods to analyse the activity of compounds on the ability to sustain the IL2-dependent viability of CTLL2
Negative control is a DMSO dilution, positive control at 10 μM. Final DMSO concentration is 0.1%.

T2 sequence (P52333 781-1124): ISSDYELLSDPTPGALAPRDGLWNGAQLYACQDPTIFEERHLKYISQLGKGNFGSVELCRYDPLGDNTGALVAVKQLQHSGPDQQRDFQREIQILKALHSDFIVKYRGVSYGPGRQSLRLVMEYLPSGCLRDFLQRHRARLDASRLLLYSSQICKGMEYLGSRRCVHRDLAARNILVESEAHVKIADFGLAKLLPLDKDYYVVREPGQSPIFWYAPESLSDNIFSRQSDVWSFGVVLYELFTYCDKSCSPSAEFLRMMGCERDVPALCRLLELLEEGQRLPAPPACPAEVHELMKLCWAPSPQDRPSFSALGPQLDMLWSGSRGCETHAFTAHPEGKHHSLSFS
T1 sequence (O60674 808-1132): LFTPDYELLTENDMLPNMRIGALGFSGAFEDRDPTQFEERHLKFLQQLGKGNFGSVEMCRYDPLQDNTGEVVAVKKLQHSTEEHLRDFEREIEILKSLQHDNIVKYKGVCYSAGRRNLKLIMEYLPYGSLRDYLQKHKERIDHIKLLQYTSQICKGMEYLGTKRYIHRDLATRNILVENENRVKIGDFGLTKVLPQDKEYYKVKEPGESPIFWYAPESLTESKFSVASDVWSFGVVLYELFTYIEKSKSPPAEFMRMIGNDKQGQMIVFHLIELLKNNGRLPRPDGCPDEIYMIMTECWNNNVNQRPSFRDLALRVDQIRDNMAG
T3 sequence (P29597 whole entry): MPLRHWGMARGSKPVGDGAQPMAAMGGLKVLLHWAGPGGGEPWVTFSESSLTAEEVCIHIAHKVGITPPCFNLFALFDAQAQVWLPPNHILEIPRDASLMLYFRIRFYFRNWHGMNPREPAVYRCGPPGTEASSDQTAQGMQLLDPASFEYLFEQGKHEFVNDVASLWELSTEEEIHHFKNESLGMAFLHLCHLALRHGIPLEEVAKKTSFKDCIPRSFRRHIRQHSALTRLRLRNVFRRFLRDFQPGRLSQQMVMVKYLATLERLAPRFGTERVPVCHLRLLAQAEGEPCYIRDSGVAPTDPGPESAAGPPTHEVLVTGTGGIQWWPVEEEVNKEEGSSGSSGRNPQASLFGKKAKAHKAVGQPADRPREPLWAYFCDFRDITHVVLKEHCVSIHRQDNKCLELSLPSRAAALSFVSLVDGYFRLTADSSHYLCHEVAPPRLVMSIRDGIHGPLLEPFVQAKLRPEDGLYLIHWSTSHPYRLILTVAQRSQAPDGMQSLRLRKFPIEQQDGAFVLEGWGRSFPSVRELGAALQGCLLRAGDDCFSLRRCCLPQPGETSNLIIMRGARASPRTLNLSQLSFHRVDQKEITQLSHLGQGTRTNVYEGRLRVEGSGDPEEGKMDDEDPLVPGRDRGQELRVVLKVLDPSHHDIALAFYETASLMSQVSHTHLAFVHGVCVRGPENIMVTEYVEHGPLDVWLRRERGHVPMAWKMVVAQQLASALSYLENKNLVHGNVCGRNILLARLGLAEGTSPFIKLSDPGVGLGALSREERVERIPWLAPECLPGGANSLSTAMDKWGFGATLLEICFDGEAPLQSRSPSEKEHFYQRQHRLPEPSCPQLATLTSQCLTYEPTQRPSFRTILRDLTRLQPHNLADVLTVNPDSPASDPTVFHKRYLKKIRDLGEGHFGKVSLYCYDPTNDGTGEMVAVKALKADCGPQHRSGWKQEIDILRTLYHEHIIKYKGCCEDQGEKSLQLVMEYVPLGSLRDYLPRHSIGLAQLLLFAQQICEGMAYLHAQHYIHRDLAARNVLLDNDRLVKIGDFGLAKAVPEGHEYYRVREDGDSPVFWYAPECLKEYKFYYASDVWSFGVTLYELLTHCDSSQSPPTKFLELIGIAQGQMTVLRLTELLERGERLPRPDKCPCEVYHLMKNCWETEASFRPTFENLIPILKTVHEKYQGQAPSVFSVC

- JAK1 selectivity vs JAK2 (JAK2 [1]): 28 fold
- IC50 (JAK2 [1]; Ulight-JAK1(tyr1023) peptide, 7.5 μM ATP, individual determinations, read-out: IC50 against JAK2): 61.5 nM and 108 nM and 101 nM and 42.9 nM and 26.4 nM and 155 nM and 35.7 nM and 30.5 nM
- Ki (JAK2 [2]): 25.1 nM
- JAK1 selectivity vs JAK3 [3]: 30 fold
- IC50 ([3]; polyGT substrate, 1 μM ATP, individual determinations, read-out: IC50 against JAK3): 160 nM and 65.2 nM and 142 nM and 66.9 nM and 30.9 nM and 32.8 nM and 38 nM and 66.6 nM
- Ki (TYK2): 70.7 nM and 108 nM
Compound: CCc1cc(C2=CCN(C(=O)CC#N)CC2)ccc1N(C)c1cc2c(cn1)ncn2C [Compound 1]
- IC50 (CTLL2 cells; 24 h, listed as compound of the invention): 2440 nM
- IC50 (CTLL2 cells; Mus musculus, CTLL-2, 24 h): 1810 nM

From patent US20130217722A1, “NOVEL COMPOUND USEFUL FOR THE TREATMENT OF DEGENERATIVE AND INFLAMMATORY DISEASES” (priority 2012, published 2013)
